# Reference: US20250353873A1, “COMPOUNDS AND METHODS FOR MODULATING APOE EXPRESSION” (Ionis Pharmaceuticals, Inc., priority 2024, published 2025)
# Strand notation (5' to 3'): a small letter for the sugar, then the base; units joined by * are phosphorothioate-linked, units joined directly phosphodiester-linked; [ ] holds rarer units or linkages, { } end groups; capitals alone tell only the bases. [ms] = mesyl phosphoramidate linkage; e = 2'-O-(2-methoxyethyl) (MOE); k = constrained ethyl (cEt); [5mC] = 5-methylcytosine; d = 2'-deoxy (DNA)
# What was measured:
# [1] = system: human APOE RNA; test: Activity in APOE C57BL/6NTac-Apoeem7250 knock-in mice, single ICV bolus, 8 weeks (Example 11); type: in vivo; settings: for APOE RNA (% control) Cortex / APOE RNA (% control) Spinal Cord: single ICV bolus 300 μg, 8 weeks post treatment, normalized to mouse Ppia; for reduction of human APOE RNA in the cortex: APOE knock-in mouse model, 8 weeks post administration, assay of Example 11
# Summary of the method: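 Cortical and spinal cord human APOE RNA quantified by RT-qPCR 8 weeks after a single 300 μg ICV dose in knock-in mice, Ppia-normalized. Values are percent of levels in PBS-treated animals.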
# [2] = system: human APOE RNA; test: Activity in APOE C57BL/6NTac-Apoeem7250 knock-in mice, single ICV bolus, 16 weeks (Example 12); type: in vivo; settings: single ICV bolus 300 μg, 16 weeks post treatment, normalized to mouse Ppia
# Summary of the method: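 A single 300 μg intracerebroventricular dose was given, with PBS-treated mice as reference; cortical and spinal cord tissue was taken 16 weeks later. RT-qPCR quantified human APOE RNA, Ppia-normalized, expressed relative to PBS animals (% control).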
# [3] = system: human APOE RNA; test: Activity in APOE C57BL/6NTac-Apoeem7250 knock-in mice, single ICV bolus, 4 weeks (Example 10); type: in vivo; settings: single ICV bolus 300 μg, 4 weeks post treatment, normalized to mouse Ppia
# Summary of the method: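 Human APOE RNA, quantified by real-time RT-PCR with RTS3073 and normalized to mouse Ppia, was read in cortical brain and spinal cord 4 weeks post dosing. Dosing was a single ICV bolus of 300 μg per knock-in mouse; values are % of PBS-treated animals.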
# [4] = system: human APOE RNA; test: Dose-dependent reduction of human APOE RNA in HepG2 cells, electroporation, 20,000 cells per well, average of GAPDH- and PPIA-normalized results (Example 4, Table 12); type: cell-based; settings: HepG2, 20,000 cells per well
# Protocol: HepG2 cells plated at a density of 20,000 cells per well were treated by electroporation with various concentrations of modified oligonucleotide as specified in the tables below. […] APOE RNA levels were measured using the human primer probe set RTS3073 (described herein above). APOE RNA levels were normalized to human GAPDH, and human PPIA. Human GAPDH was amplified using human primer probe set RTS104 (described herein above). Human PPIA was amplified using human primer probe set mk_cycloA_2nd (described herein above) The average of the GAPDH-normalized results and the PPIA-normalized results are presented in the table below as percent APOE RNA, relative to the amount of APOE RNA in untreated control cells (% UTC). The half maximal inhibitory concentration (IC50) of each modified oligonucleotide was calculated in GraphPad Prism 10 (GraphPad Software, San Diego, CA) and is also presented in the table below.
# [5] = system: human APOE RNA; test: Dose-dependent inhibition of human APOE RNA in differentiated SH-SY5Y cells, free uptake, 5 days (Example 5); type: cell-based
# Protocol: Modified oligonucleotides selected from the examples above were tested at various doses in differentiated SH-SY5Y cells. The modified oligonucleotides were tested in a series of experiments that had the same culture conditions.
# Differentiated SH-SY5Y cells plated at a density of 10,000 cells per well were treated by free uptake with various concentrations of modified oligonucleotide as specified in the tables below. […] APOE RNA levels were measured using the human primer probe set RTS3073 (described herein above). APOE RNA levels were normalized to human PPIA. Human PPIA was amplified using human primer probe set mk_cycloA_2nd (described herein above). Results are presented as percent APOE RNA, relative to the amount of APOE RNA in untreated control cells (% UTC). The half maximal inhibitory concentration (IC50) of each modified oligonucleotide was calculated in GraphPad Prism 10 (GraphPad Software, San Diego, CA) and is also presented in the tables below.
# [6] = system: human APOE RNA; test: Activity in APOE C57BL/6NTac-Apoeem7250 knock-in mice, single ICV bolus, 20 weeks (Example 13); type: in vivo; settings: single ICV bolus 300 μg, 20 weeks post treatment, normalized to mouse Ppia
# Summary of the method: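 Cortical and spinal cord RNA was assayed by real-time RT-PCR for human APOE, normalized to mouse Ppia and reported as percent of PBS controls. Tissue was taken twenty weeks after one 300 μg intracerebroventricular bolus in APOE knock-in mice, 4 per group.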
substance,measurement,setting,value
1778111: modified oligonucleotide complementary to human APOE RNA (eA*e[5mC]eTeTeG*kG*dT*dG[ms]dA[ms]dA*dT*d[5mC]*dT*dT*dT*dA[ms]eTeT*eA*eA; antisense) [compound 1778111],APOE RNA (% control) Cortex,[1],41 % control
same,APOE RNA (% control) Spinal Cord,[1],17 % control
same,APOE RNA (% control) Cortex,[2]; cortex,49 % control
same,APOE RNA (% control) Spinal Cord,[2]; spinal cord,27 % control
same,APOE RNA (% control) Cortex,[3]; cortex,34 % control
same,APOE RNA (% control) Spinal Cord,[3]; spinal cord,53 % control
same,APOE RNA (% UTC),[4]; 5 nM,106 % UTC
same,APOE RNA (% UTC),[4]; 13 nM,88 % UTC
same,APOE RNA (% UTC),[4]; 33 nM,91 % UTC
same,APOE RNA (% UTC),[4]; 82 nM,77 % UTC
same,APOE RNA (% UTC),[4]; 205 nM,62 % UTC
same,APOE RNA (% UTC),[4]; 512 nM,43 % UTC
same,APOE RNA (% UTC),"[4]; 1,280 nM",32 % UTC
same,APOE RNA (% UTC),"[4]; 3,200 nM",21 % UTC
same,APOE RNA (% UTC),"[4]; 8,000 nM",14 % UTC
same,APOE RNA (% UTC),"[4]; 20,000 nM",8 % UTC
same,IC50,[4]; approximately 24 hours,440 nM
same,APOE RNA (% UTC),"[5]; 5 nM, 5 days (Table 14)",67 % UTC
same,APOE RNA (% UTC),"[5]; 13 nM, 5 days (Table 14)",68 % UTC
same,APOE RNA (% UTC),"[5]; 33 nM, 5 days (Table 14)",41 % UTC
same,APOE RNA (% UTC),"[5]; 82 nM, 5 days (Table 14)",41 % UTC
same,APOE RNA (% UTC),"[5]; 205 nM, 5 days (Table 14)",32 % UTC
same,APOE RNA (% UTC),"[5]; 512 nM, 5 days (Table 14)",62 % UTC
same,APOE RNA (% UTC),"[5]; 1,280 nM, 5 days (Table 14)",59 % UTC
same,APOE RNA (% UTC),"[5]; 3,200 nM, 5 days (Table 14)",43 % UTC
same,APOE RNA (% UTC),"[5]; 8,000 nM, 5 days (Table 14)",25 % UTC
same,APOE RNA (% UTC),"[5]; 20,000 nM, 5 days (Table 14)",17 % UTC
same,IC50,[5]; 5 days (Table 14),110 nM
same,APOE RNA (% control) Cortex,[6]; cortex,59 % control
same,APOE RNA (% control) Spinal Cord,[6]; spinal cord,25 % control
Aks^mCeoTeoTesGesGksTdsGdzAdzAdzTds^mCdsTdsTdsTdsAdzTksTksAesAe (kA*e[5mC]eTeT*eG*kG*dT*dG[ms]dA[ms]dA[ms]dT*d[5mC]*dT*dT*dT*dA[ms]kT*kT*eA*eA) [Compound No. 1809635],reduction of human APOE RNA in the cortex,[1],74%
same,APOE RNA (% control) Cortex,[1],26 % control
same,APOE RNA (% control) Spinal Cord,[1],15 % control
same,APOE RNA (% UTC),"[5]; 5 nM, 5 days (Table 13)",67 % UTC
same,APOE RNA (% UTC),"[5]; 13 nM, 5 days (Table 13)",62 % UTC
same,APOE RNA (% UTC),"[5]; 33 nM, 5 days (Table 13)",52 % UTC
same,APOE RNA (% UTC),"[5]; 82 nM, 5 days (Table 13)",43 % UTC
same,APOE RNA (% UTC),"[5]; 205 nM, 5 days (Table 13)",33 % UTC
same,APOE RNA (% UTC),"[5]; 512 nM, 5 days (Table 13)",27 % UTC
same,APOE RNA (% UTC),"[5]; 1,280 nM, 5 days (Table 13)",40 % UTC
same,APOE RNA (% UTC),"[5]; 3,200 nM, 5 days (Table 13)",28 % UTC
same,APOE RNA (% UTC),"[5]; 8,000 nM, 5 days (Table 13)",20 % UTC
same,APOE RNA (% UTC),"[5]; 20,000 nM, 5 days (Table 13)",20 % UTC
same,IC50,[5]; 5 days (Table 13),50 nM
TezTeoGeoGksTdsGdzAdzAdzTds^mCdsTdsTdsTdsAdzTksTksAesAesAes^mCe (antisense eT[ms]eTeGkG*dT*dG[ms]dA[ms]dA[ms]dT*d[5mC]*dT*dT*dT*dA[ms]kT*kT*eA*eA*eA*e[5mC]) [Compound No. 1809814],reduction of human APOE RNA in the cortex,[1],64%
same,APOE RNA (% control) Cortex,[1],36 % control
same,APOE RNA (% control) Spinal Cord,[1],33 % control
same,APOE RNA (% UTC),"[5]; 5 nM, 5 days (Table 13)",91 % UTC
same,APOE RNA (% UTC),"[5]; 13 nM, 5 days (Table 13)",66 % UTC
same,APOE RNA (% UTC),"[5]; 33 nM, 5 days (Table 13)",61 % UTC
same,APOE RNA (% UTC),"[5]; 82 nM, 5 days (Table 13)",63 % UTC
same,APOE RNA (% UTC),"[5]; 205 nM, 5 days (Table 13)",47 % UTC
same,APOE RNA (% UTC),"[5]; 512 nM, 5 days (Table 13)",53 % UTC
same,APOE RNA (% UTC),"[5]; 1,280 nM, 5 days (Table 13)",39 % UTC
same,APOE RNA (% UTC),"[5]; 3,200 nM, 5 days (Table 13)",39 % UTC
same,APOE RNA (% UTC),"[5]; 8,000 nM, 5 days (Table 13)",41 % UTC
same,APOE RNA (% UTC),"[5]; 20,000 nM, 5 days (Table 13)",33 % UTC
same,IC50,[5]; 5 days (Table 13),550 nM
